According to PubChem BioAssay AID256 (DTP/NCI, 2004):
“And” between values parts separate entries of the source, which are not always exact repeats. Identical values can stand only once. Toxic doses and inconclusive results are not listed. Rule for the calls: active = survival T/C of 150% or more; inactive = T/C below 125% in these data.

Tested on: CD2F1 mice, L1210 leukemia ip, survival T/C
Test: NCI In Vivo Anticancer Drug Screen. Data for tumor model L1210 Leukemia (intraperitoneal) in CD2F1 (CDF1) mice
Settings: higher = longer survival
Procedure, shortened: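 Mice carrying a transplanted tumor received test compound or vehicle alone. The value is the measurement in the treated group divided by that in the vehicle-treated control group.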

[1] = endpoint: mean survival time, dose: 100.0 mg/kg/injection, schedule: Q04DX003 (ip), vehicle: saline with Tween-80
[2] = endpoint: mean survival time, dose: 200.0 mg/kg/injection, schedule: Q04DX003 (ip), vehicle: saline with Tween-80
[3] = endpoint: mean survival time, dose: 25.0 mg/kg/injection, schedule: Q01DX005 (ip), vehicle: water
[4] = endpoint: mean survival time, dose: 50.0 mg/kg/injection, schedule: Q01DX005 (ip), vehicle: water
[5] = endpoint: mean survival time, dose: 100.0 mg/kg/injection, schedule: Q01DX005 (ip), vehicle: water
[6] = endpoint: mean survival time, dose: 100.0 mg/kg/injection, schedule: Q01DX009 (ip), vehicle: other
[7] = endpoint: mean survival time, dose: 200.0 mg/kg/injection, schedule: Q01DX009 (ip), vehicle: other
[8] = endpoint: mean survival time, dose: 100.0 mg/kg/injection, schedule: Q01DX009 (ip), vehicle: saline with Tween-80
[9] = endpoint: mean survival time, dose: 200.0 mg/kg/injection, schedule: Q01DX009 (ip), vehicle: saline with Tween-80
[10] = endpoint: mean survival time, dose: 400.0 mg/kg/injection, schedule: Q01DX009 (ip), vehicle: saline with Tween-80
[11] = endpoint: mean survival time, dose: 400.0 mg/kg/injection, schedule: Q04DX003 (ip), vehicle: saline with Tween-80
[12] = endpoint: mean survival time, dose: 5.0 mg/kg/injection, schedule: Q01DX001 (ip), vehicle: saline with Tween-80
[13] = endpoint: mean survival time, dose: 10.0 mg/kg/injection, schedule: Q01DX001 (ip), vehicle: saline with Tween-80
[14] = endpoint: mean survival time, dose: 20.0 mg/kg/injection, schedule: Q01DX001 (ip), vehicle: saline with Tween-80

Measured: T/C

O=C1CSC(c2ccccc2)N1 (stereo unspecified)
inactive: endpoint: mean survival time, dose: 50.0 mg/kg/injection, schedule: Q04DX003 (ip), vehicle: saline with Tween-80 102 % of control | [1] 100 % of control | [2] 100 % of control

CCOC(=O)C[Si](C)(C)C
inactive: [3] 101 % of control | [4] 104 % of control | [5] 101 % of control | endpoint: mean survival time, dose: 200.0 mg/kg/injection, schedule: Q01DX005 (ip), vehicle: water 104 % of control | endpoint: mean survival time, dose: 400.0 mg/kg/injection, schedule: Q01DX005 (ip), vehicle: water 101 % of control

CCCC(=O)Nc1ncnc2c1[nH]c(=O)n2C1OC2COP(=O)(O)OC2C1O (stereo unspecified)
inactive: endpoint: mean survival time, dose: 6.25 mg/kg/injection, schedule: Q01DX005 (ip), vehicle: water 97 % of control | endpoint: mean survival time, dose: 12.5 mg/kg/injection, schedule: Q01DX005 (ip), vehicle: water 97 % of control | [3] 93 % of control | [4] 93 % of control | [5] 95 % of control

O=C(O)Cc1cc(=O)oc2ccccc12
inactive: endpoint: mean survival time, dose: 100.0 mg/kg/injection, schedule: Q01DX001 (ip), vehicle: saline with Tween-80 104 % of control | endpoint: mean survival time, dose: 200.0 mg/kg/injection, schedule: Q01DX001 (ip), vehicle: saline with Tween-80 104 % of control | endpoint: mean survival time, dose: 400.0 mg/kg/injection, schedule: Q01DX001 (ip), vehicle: saline with Tween-80 96 % of control

Cc1ccc(N2CC(O)CSC2=Nc2ccccc2)cc1 (stereo unspecified)
inactive: endpoint: mean survival time, dose: 100.0 mg/kg/injection, schedule: Q01DX001 (ip), vehicle: Klucel (hydroxypropylcellulose) (HPC) 93 % of control | endpoint: mean survival time, dose: 200.0 mg/kg/injection, schedule: Q01DX001 (ip), vehicle: Klucel (hydroxypropylcellulose) (HPC) 91 % of control | endpoint: mean survival time, dose: 400.0 mg/kg/injection, schedule: Q01DX001 (ip), vehicle: Klucel (hydroxypropylcellulose) (HPC) 91 % of control

O=C1c2ccccc2C(=O)c2c(O)c(CCCN3C(=O)c4ccccc4C3=O)cc(O)c21
inactive: endpoint: mean survival time, dose: 12.5 mg/kg/injection, schedule: Q01DX009 (ip), vehicle: other 89 % of control | endpoint: mean survival time, dose: 25.0 mg/kg/injection, schedule: Q01DX009 (ip), vehicle: other 87 % of control | endpoint: mean survival time, dose: 50.0 mg/kg/injection, schedule: Q01DX009 (ip), vehicle: other 87 % of control | [6] 89 % of control | [7] 97 % of control

Cc1cc(Cl)ccc1OCC(=O)Nc1nc(N)nc(N)n1
inactive: [8] 105 % of control | [1] 89 % of control | [9] 102 % of control | [2] 90 % of control | [10] 100 % of control | [11] 101 % of control

COc1cc([N+](=O)[O-])ccc1NC(=O)OC/C=C/c1ccccc1
inactive: [8] 92 % of control | [9] 91 % of control

C(#Cc1ccccc1)C[P+](c1ccccc1)(c1ccccc1)c1ccccc1
inactive: endpoint: mean survival time, dose: 1.25 mg/kg/injection, schedule: Q01DX009 (ip), vehicle: saline with Tween-80 95 % of control | endpoint: mean survival time, dose: 2.5 mg/kg/injection, schedule: Q01DX009 (ip), vehicle: saline with Tween-80 101 % of control | [12] 102 % of control | endpoint: mean survival time, dose: 5.0 mg/kg/injection, schedule: Q01DX009 (ip), vehicle: saline with Tween-80 93 % of control and 103 % of control | [13] 106 % of control | [14] 104 % of control

CCc1nc(N)nc(N)n1
inactive: endpoint: mean survival time, dose: 50.0 mg/kg/injection, schedule: Q01DX009 (ip), vehicle: saline 104 % of control | endpoint: mean survival time, dose: 100.0 mg/kg/injection, schedule: Q01DX009 (ip), vehicle: saline 100 % of control | endpoint: mean survival time, dose: 200.0 mg/kg/injection, schedule: Q01DX009 (ip), vehicle: saline 104 % of control

Cc1c2c(c(C)c3c(C)nccc13)Cc1ccccc1-2
inactive: endpoint: mean survival time, dose: 100.0 mg/kg/injection, schedule: Q04DX002 (ip), vehicle: saline with Tween-80 92 % of control | endpoint: mean survival time, dose: 200.0 mg/kg/injection, schedule: Q04DX002 (ip), vehicle: saline with Tween-80 92 % of control | endpoint: mean survival time, dose: 400.0 mg/kg/injection, schedule: Q04DX002 (ip), vehicle: saline with Tween-80 88 % of control

COc1c(NC(C)=O)cc2c(c1C)OC(C)(C)C=C2
inactive: [8] 101 % of control | [9] 98 % of control

C1CCC2[N-]CCCC2C1.C1CCC2[N-]CCCC2C1.[Cl][Pt+2][Cl] (stereo unspecified)
inactive: endpoint: median survival time, dose: 3.12 mg/kg/injection, schedule: Q04DX003 (ip), vehicle: saline 102 % of control | endpoint: median survival time, dose: 6.25 mg/kg/injection, schedule: Q04DX003 (ip), vehicle: saline 98 % of control | endpoint: median survival time, dose: 12.5 mg/kg/injection, schedule: Q04DX003 (ip), vehicle: saline 101 % of control | endpoint: median survival time, dose: 25.0 mg/kg/injection, schedule: Q04DX003 (ip), vehicle: saline 105 % of control | endpoint: median survival time, dose: 50.0 mg/kg/injection, schedule: Q04DX003 (ip), vehicle: saline 103 % of control | endpoint: median survival time, dose: 100.0 mg/kg/injection, schedule: Q04DX003 (ip), vehicle: saline 94 % of control | endpoint: median survival time, dose: 200.0 mg/kg/injection, schedule: Q04DX003 (ip), vehicle: saline 100 % of control

CCOC(=O)c1ccc(NC(=O)NC)cc1
inactive: [8] 93 % of control | [1] 92 % of control | [9] 93 % of control | [2] 93 % of control | [10] 93 % of control | [11] 101 % of control

CC(C)CCCC(C)C1CCC2C3CCC4CCCCC4(C)C3CCC12C (stereo unspecified)
inactive: [8] 95 % of control | [9] 94 % of control | [10] 105 % of control

COc1cc2c(cc1OC)C13CCN4CC5=CCOC(CC(=O)O)C(C5CC41)C3N2 (stereo unspecified)
inactive: endpoint: mean survival time, dose: 75.0 mg/kg/injection, schedule: Q01DX001 (ip), vehicle: other 98 % of control | endpoint: mean survival time, dose: 75.0 mg/kg/injection, schedule: Q01DX001 (ip), vehicle: saline 101 % of control | endpoint: mean survival time, dose: 150.0 mg/kg/injection, schedule: Q01DX001 (ip), vehicle: saline 97 % of control

CCOC(=O)CCC(NC(=O)c1ccccc1NC)C(=O)OCC (stereo unspecified)
inactive: [1] 101 % of control | [2] 101 % of control | [11] 103 % of control

O=C1c2cccc(O)c2C(=O)c2cccc(O)c21
inactive: [1] 102 % of control | [2] 94 % of control | [11] 105 % of control

CCCCOB=O
inactive: [1] 96 % of control | [2] 98 % of control | [11] 95 % of control

C[C@]12CCCC[C@@H]1CC[C@@H]1[C@@H]2CC[C@]2(C)C(=O)CC[C@@H]12
inactive: [1] 92 % of control | [2] 91 % of control | [11] 89 % of control

c1ccc2c(c1)OB(C1CCCC1)O2
inactive: [6] 93 % of control | [7] 105 % of control | endpoint: mean survival time, dose: 400.0 mg/kg/injection, schedule: Q01DX009 (ip), vehicle: other 109 % of control

CC1(C)c2c3ccccc3cc3cccc(c23)[S+]1c1ccccc1 (stereo unspecified)
inactive: [12] 105 % of control | [13] 106 % of control | [14] 111 % of control

O/N=C1\C=C2C/C(=N/O)C=C2C1
inactive: endpoint: mean survival time, dose: 50.0 mg/kg/injection, schedule: Q01DX009 (ip), vehicle: saline with Tween-80 100 % of control | [8] 96 % of control | [9] 96 % of control
